US7465720B2, “Proteasome inhibiting β-lactam compounds” (President and Fellows of Harvard College, priority 2005, dated 2008)
Like-named read-outs stand apart in the source and are kept apart here. Each block holds one compound with its values, some of them ahead of it. Where a SMILES comes first, the peptide text is derived from it. The star is where a group is joined. Cbz = O=C(OCc1ccccc1)*

Experiments:
[1] = system: PC12 cells; details: cited from earlier work
[2] = biological target: T1, 20S proteasome (Homo sapiens, UniProt P28074); experiment: Inactivation of 20S proteasome, hydrolysis of Suc-Leu-Leu-Val-Tyr-AMC followed by fluorescence; assay type: biochemical; details: for kinact/KI: read-out: kobs/[3]
T1 construct: purchased Boston Biochem
Protocol: Determination of the inhibitory activity of Compound 3 against the 20S proteasome (see reference 12) was carried out by a modification of the method reported by Dick et al. See reference 11. […] See reference 12. The progress of proteasome inactivation was determined by addition of Suc-LLVY-AMC to a 2 mL aliquot of the incubation experiment and monitoring the rate of production of free AMC by fluorescence spectrophotometry.
A plot of .ln(fluorescence/time) vs. time provided a linear decay whose slope is kobs for proteasome inactivation (FIG. 2). The rate of proteasome inactivation was proportional to the amount of Compound 3 present in the incubation experiments. The 10 μM and 30 μM time course experiments gave values for kobs/[3] as 7 M-1s-1 and 6.7 M-1s-1 respectively. In order to monitor background inactivation of 20S proteasome (see reference 13), each of these of experiments was run side by side with a control experiment identical in all respects except for the exclusion of Compound 3.
Inactivation of 20S proteasome by Compound 3. To separate 50 mL vials containing 12 mL of pH 7.9 buffer (20 mM hepes, 0.5 mM EDTA) was added 60 μL of a stock solution of 20S proteasome (20 mM Hepes, 0.5 mM EDTA, pH 7.9, 100 μg/mL) and aqueous sodium dodecylsulfate (10% w/v, 30 μL). The initial rate of hydrolysis of Suc-Leu-Leu-Val-TyrAMC was determined by addition of a solution of Suc-Leu-Leu-Val-Tyr-AMC (10 mM in DMSO, 10 μL) to a 2 mL aliquot of each of the above solutions. The initial rate of free AMC production was monitored at 37° C. by fluorescence spectrophotometry as described by Dick et al.* To one of the stock solutions was added a solution of the β-lactam 3 (10 mM in DMSO, 12 μL). Both solutions were incubated side by side at 37° C. Aliquots were removed at time points as assayed as above. The data for both the 10 μM experiment and an identical experiment utilizing 30 μM using a 30 mM stock solution of 3 are tabulated below. * See, McCormack, T.; Baumeister, W.; Grenier, L.; Moomaw, C.; Plamondon, L.; Pramanik, B.; Slaughter, C.; Soucy, F.; Stein, R.; Zuhl, F.; Dick, L., J. Biol. Chem. 1996, 272, 26103-26109.

[3] = Stability of Compound 3 in solution at pH 7; assay type: physicochemical
Description: Oxidative cleavage of the (S)(−)-(4-methoxyphenyl)-ethylamide protecting group in Compound 14 cleanly afforded the β-lactam, Compound 3, in 89% yield.

[4] = Part 2, 30 μM of Compound 3, time 0 mm
[5] = Part 2, 30 μM of Compound 3, time 47 mm
[6] = Part 2, 30 μM of Compound 3, time 101 mm
[7] = Part 2, 30 μM of Compound 3, time 177 mm

SMILES: CC(C)C[C@@H](C=O)NC(=O)[C@H](CC(C)C)NC(=O)[C@H](CC(C)C)NC(=O)OCc1ccccc1 [benzyloxycarbonyl (Z)-Leu-Leu-leucinal] (Cbz-Leu-Leu-Leu-aldehyde)
optimal concentration for inducing neurite outgrowth [1]: 30 nM

melting point: 205 to 207 °C
remaining activity at 10 µM ([2]; 10 μM 3, after 9.5 h, read-out: initial proteasome activity remaining): < 10%
% Initial Velocity ([2]; 10 μM Compound 3, time 0 h): 100%
Experiment with 10 μM 3 (units F/s) ([2]; 10 μM Compound 3, time 0 h): 0.59 units F/s
% Initial Velocity ([2]; 10 μM Compound 3, time 1.5 h): 57%
Experiment with 10 μM 3 (units F/s) ([2]; 10 μM Compound 3, time 1.5 h): 0.337 units F/s
% Initial Velocity ([2]; 10 μM Compound 3, time 2.5 h): 45%
Experiment with 10 μM 3 (units F/s) ([2]; 10 μM Compound 3, time 2.5 h): 0.267 units F/s
% Initial Velocity ([2]; 10 μM Compound 3, time 4.5 h): 26%
Experiment with 10 μM 3 (units F/s) ([2]; 10 μM Compound 3, time 4.5 h): 0.156 units F/s
% Initial Velocity ([2]; 10 μM Compound 3, time 6.5 h): 15%
Experiment with 10 μM 3 (units F/s) ([2]; 10 μM Compound 3, time 6.5 h): 0.09 units F/s
% Initial Velocity ([2]; 10 μM Compound 3, time 9.5 h): 7.4%
Experiment with 10 μM 3 (units F/s) ([2]; 10 μM Compound 3, time 9.5 h): 0.044 units F/s
remaining activity at 30 µM ([2]; 30 μM 3, after 3 h, read-out: initial proteasome activity remaining): < 10%
% Initial Velocity [2, 4]: 100%
Experiment with 10 μM 3 (units F/s) [2, 4]: 0.526 units F/s
% Initial Velocity [2, 5]: 44%
Experiment with 10 μM 3 (units F/s) [2, 5]: .233 units F/s
% Initial Velocity [2, 6]: 17%
Experiment with 10 μM 3 (units F/s) [2, 6]: 0.090 units F/s
% Initial Velocity [2, 7]: 7%
Experiment with 10 μM 3 (units F/s) [2, 7]: 0.039 units F/s
kinact/KI ([2]; pH 7.9, 10 μM time course): 7 M⁻¹ s⁻¹
kinact/KI ([2]; pH 7.9, 30 μM time course): 6.7 M⁻¹ s⁻¹
stability compared with the corresponding β-lactone and Compounds 1 and 2 ([3]; found to date): much more stable
stability at pH 7 ([3]; pH 7, 23° C., 24 h): completely stable
SMILES: CC(C)[C@H](O)[C@@]12NC(=O)[C@H](CCCl)[C@@H]1NC2=O [Compound 3]
